Experimental data reported in the supplement of paper PMC4862054.

Assays:
Settings in all cases: incubation time: 72 h
[1] = tested on: BT-474; test: normalised viability (% of control), CellTiter-Blue; higher = more viable cells (about 100 = DMSO control)
Method in brief: (§1)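 Each entry is normalised viability at a single listed concentration within a series. It comes from breast cancer cell lines incubated 72 h with compound in 384-well plates, then measured with CellTiter-Blue fluorescence at 560/590 nm. Every plate was normalised between vehicle (100) and a positive kill control (0).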

[2] = tested on: BT-549; test: as above
Method in brief: as §1

[3] = tested on: CAL-120; test: as above
Method in brief: as §1

[4] = tested on: CAL-148; test: as above
Method in brief: as §1

[5] = tested on: CAL-51; test: as above
Method in brief: as §1

[6] = tested on: CAL-85-1; test: as above
Method in brief: as §1

[7] = tested on: DU-4475; test: as above
Method in brief: as §1

[8] = tested on: HCC1143; test: as above
Method in brief: as §1

[9] = tested on: HCC1599; test: as above
Method in brief: as §1

[10] = tested on: HCC1937; test: as above
Method in brief: as §1

[11] = tested on: HDQ-P1; test: as above
Method in brief: as §1

[12] = tested on: Hs578T; test: as above
Method in brief: as §1

[13] = tested on: MDA-MB-231; test: as above
Method in brief: as §1

[14] = tested on: MDA-MB-436; test: as above
Method in brief: as §1

[15] = tested on: MDA-MB-453; test: as above
Method in brief: as §1

[16] = tested on: MDA-MB-468; test: as above
Method in brief: as §1

[17] = tested on: MFM-223; test: as above
Method in brief: as §1

[18] = tested on: SK-BR-3; test: as above
Method in brief: as §1

[19] = tested on: HDQ-P1; test: normalised viability (% of control), CellTiter-Blue; higher = more viable cells (about 100 = DMSO control); remark: listed apart in the source
Method: (§2)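 DSRT, CellTiter-Blue viability, 72 h incubation. Signal is normalised to DMSO and benzethonium chloride controls. Value is the normalised response at dose 6.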

[20] = tested on: MDA-MB-453; test: as above; remark: listed apart in the source
Method: as §2

[21] = tested on: HCC1937; test: drug sensitivity score (DSS), CellTiter-Blue viability (DSS (AUC-based score)); higher = stronger viability inhibition; extreme values may be limits of the assay
Method in brief: (§3)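 Compound was arrayed in 384-well plates as a 5- or 9-concentration series, and 20 µl of breast cancer cell suspension was seeded on top. After 72 h, each well received 2.5 µl CellTiter-Blue for 2 h at 37 °C before fluorescence reading at 560/590 nm. Per-plate normalisation used 0.1 % DMSO and a positive kill control, and the area under the fitted dose-response curve gave the drug sensitivity score.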

[22] = tested on: Hs578T; test: as above
Method in brief: as §3

[23] = tested on: MDA-MB-436; test: as above
Method in brief: as §3

O=C(O)C(=O)O.[NH-][C@@H]1CCCC[C@H]1[NH-].[Pt+2] [Oxaliplatin]
Settings	normalised viability [%]
[1], 10 nM	125
[1], 1000 nM	118
[1], 10000 nM	83.5
[2], 10 nM	93.9
[2], 1000 nM	74.2
[2], 10000 nM	52.6
[3], 10 nM	87.1
[3], 1000 nM	93.2
[3], 10000 nM	52.2
[4], 3 nM	93
[4], 30 nM	106
[4], 100 nM	120
[5], 3 nM	97.9
[5], 30 nM	92.2
[5], 100 nM	94.9
[6], 3 nM	99
[6], 30 nM	83.2
[6], 100 nM	87.3
[7], 3 nM	112
[7], 30 nM	106
[7], 100 nM	100
[8], 10 nM	82.2
[8], 1000 nM	94.2
[8], 10000 nM	44
[9], 10 nM	87.3
[9], 1000 nM	79.6
[9], 10000 nM	70
[10], 10 nM	90.7
[10], 1000 nM	82.2
[10], 10000 nM	33.9
[11], 3 nM	110
[11], 30 nM	103
[11], 100 nM	107
[12], 10 nM	106
[12], 1000 nM	129
[12], 10000 nM	66.9
[13], 10 nM	92.2
[13], 1000 nM	83.5
[13], 10000 nM	48.9
[14], 10 nM	111
[14], 1000 nM	88.6
[14], 10000 nM	56.5
[15], 3 nM	119
[15], 30 nM	101
[15], 100 nM	113
[16], 10 nM	98.7
[16], 1000 nM	97.7
[16], 10000 nM	56.5
[17], 10 nM	98.6
[17], 1000 nM	94.1
[17], 10000 nM	50.5
[18], 10 nM	98.1
[18], 1000 nM	122
[18], 10000 nM	47.5
[19], 300 nM	78.4
[20], 300 nM	98.8

Settings	drug sensitivity score
[21]	3.82
[22]	0
[23]	2.6

COc1cc2nccc(Oc3ccc(NC(=O)Nc4cc(C)on4)c(Cl)c3)c2cc1OC [Tivozanib]
Settings	normalised viability [%]
[1], 10 nM	111
[1], 1000 nM	96.4
[1], 10000 nM	62.8
[2], 10 nM	82.7
[2], 1000 nM	97.6
[2], 10000 nM	36.5
[3], 10 nM	101
[3], 1000 nM	98.7
[3], 10000 nM	47.8
[4], 3 nM	95
[4], 30 nM	96.6
[4], 100 nM	91.8
[5], 3 nM	100
[5], 30 nM	103
[5], 100 nM	96.3
[6], 3 nM	100
[6], 30 nM	107
[6], 100 nM	103
[7], 3 nM	103
[7], 30 nM	101
[7], 100 nM	119
[8], 10 nM	111
[8], 1000 nM	105
[8], 10000 nM	94.5
[9], 10 nM	121
[9], 1000 nM	98.8
[9], 10000 nM	79
[10], 10 nM	127
[10], 1000 nM	88.2
[10], 10000 nM	63
[11], 3 nM	83.1
[11], 30 nM	85.8
[11], 100 nM	99.7
[12], 10 nM	109
[12], 1000 nM	84.8
[12], 10000 nM	58.2
[13], 10 nM	87.8
[13], 1000 nM	78.1
[13], 10000 nM	43.1
[14], 10 nM	101
[14], 1000 nM	97.1
[14], 10000 nM	72.4
[15], 3 nM	98
[15], 30 nM	92.9
[15], 100 nM	96.3
[16], 10 nM	103
[16], 1000 nM	111
[16], 10000 nM	51.1
[17], 10 nM	93.6
[17], 1000 nM	55.3
[17], 10000 nM	40.2
[18], 10 nM	99.7
[18], 1000 nM	99.1
[18], 10000 nM	68.9
[19], 300 nM	61.2
[20], 300 nM	95.8

Settings	drug sensitivity score
[21]	0
[22]	2.98
[23]	0

Cc1cnc(NC(=O)Nc2cc(Br)c(C)cc2OC[C@@H]2CNCCO2)cn1
Settings	normalised viability [%]
[1], 1 nM	102
[1], 100 nM	107
[1], 1000 nM	107
[2], 1 nM	90.9
[2], 100 nM	96
[2], 1000 nM	92
[3], 1 nM	88.5
[3], 100 nM	96.4
[3], 1000 nM	90.1
[4], 0.3 nM	99.2
[4], 3 nM	90
[4], 10 nM	96.3
[5], 0.3 nM	97.8
[5], 3 nM	85.7
[5], 10 nM	93.1
[6], 0.3 nM	90.6
[6], 3 nM	89.4
[6], 10 nM	106
[7], 0.3 nM	116
[7], 3 nM	94.6
[7], 10 nM	106
[8], 1 nM	97.9
[8], 100 nM	90
[8], 1000 nM	79.3
[9], 1 nM	112
[9], 100 nM	95.7
[9], 1000 nM	65.7
[10], 1 nM	108
[10], 100 nM	80.7
[10], 1000 nM	50.6
[11], 0.3 nM	104
[11], 3 nM	88.4
[11], 10 nM	68.7
[12], 1 nM	92.6
[12], 100 nM	102
[12], 1000 nM	35
[13], 1 nM	106
[13], 100 nM	103
[13], 1000 nM	94
[14], 1 nM	104
[14], 100 nM	83.4
[14], 1000 nM	67.8
[15], 0.3 nM	109
[15], 3 nM	111
[15], 10 nM	105
[16], 1 nM	106
[16], 100 nM	110
[16], 1000 nM	56.6
[17], 1 nM	104
[17], 100 nM	98.8
[17], 1000 nM	79.5
[18], 1 nM	98.9
[18], 100 nM	101
[18], 1000 nM	30.1
[19], 30 nM	68.4
[20], 30 nM	94.3

Settings	drug sensitivity score
[21]	5.26
[22]	1.59
[23]	3.49

CCCCC(=O)OCC(=O)[C@]1(O)Cc2c(O)c3c(c(O)c2[C@@H](O[C@H]2C[C@H](NC(=O)C(F)(F)F)[C@H](O)[C@H](C)O2)C1)C(=O)c1c(OC)cccc1C3=O [Valrubicin]
Settings	normalised viability [%]
[1], 10 nM	114
[1], 1000 nM	74.9
[1], 10000 nM	55.1
[2], 10 nM	82.4
[2], 1000 nM	65.1
[2], 10000 nM	47.5
[3], 10 nM	96.1
[3], 1000 nM	31.8
[3], 10000 nM	15.6
[4], 3 nM	90.9
[4], 30 nM	72.9
[4], 100 nM	60.1
[5], 3 nM	93.1
[5], 30 nM	80
[5], 100 nM	55.3
[6], 3 nM	80.8
[6], 30 nM	81.8
[6], 100 nM	81.5
[7], 3 nM	90.1
[7], 30 nM	55.4
[7], 100 nM	49.8
[8], 10 nM	97.2
[8], 1000 nM	47.7
[8], 10000 nM	24.9
[9], 10 nM	79.7
[9], 1000 nM	67.4
[9], 10000 nM	40.2
[10], 10 nM	96.5
[10], 1000 nM	30.7
[10], 10000 nM	19.7
[11], 3 nM	96.2
[11], 30 nM	97.4
[11], 100 nM	84.7
[12], 10 nM	98.8
[12], 1000 nM	55.5
[12], 10000 nM	22
[13], 10 nM	84.8
[13], 1000 nM	45.6
[13], 10000 nM	19.4
[14], 10 nM	111
[14], 1000 nM	84.9
[14], 10000 nM	42.8
[15], 3 nM	104
[15], 30 nM	93.2
[15], 100 nM	99.3
[16], 10 nM	105
[16], 1000 nM	42
[16], 10000 nM	30.6
[17], 10 nM	92.1
[17], 1000 nM	72.6
[17], 10000 nM	24.2
[18], 10 nM	91.3
[18], 1000 nM	25.9
[18], 10000 nM	9.82
[19], 300 nM	72
[20], 300 nM	73.9

Settings	drug sensitivity score
[21]	16
[22]	10.3
[23]	5.44
